Experimental data taken from ChEMBL document CHEMBL1159082, “Phenylacetic acid regioisomers possessing a N-difluoromethyl-1,2-dihydropyrid-2-one pharmacophore: evaluation as dual inhibitors of cyclooxygenases and 5-lipoxygenase with anti-inflammatory activity” (Bioorg Med Chem Lett, 2010).

Assays:
[1] = Inhibition of potato 5-Lipoxygenase by enzyme immuno assay; set-up: species or system Solanum tuberosum
[2] = biological target: T1, Prostaglandin G/H synthase 2 (Homo sapiens, UniProt P35354); test: Inhibition of human recombinant COX2 by enzyme immuno assay
T1 sequence (P35354 whole entry): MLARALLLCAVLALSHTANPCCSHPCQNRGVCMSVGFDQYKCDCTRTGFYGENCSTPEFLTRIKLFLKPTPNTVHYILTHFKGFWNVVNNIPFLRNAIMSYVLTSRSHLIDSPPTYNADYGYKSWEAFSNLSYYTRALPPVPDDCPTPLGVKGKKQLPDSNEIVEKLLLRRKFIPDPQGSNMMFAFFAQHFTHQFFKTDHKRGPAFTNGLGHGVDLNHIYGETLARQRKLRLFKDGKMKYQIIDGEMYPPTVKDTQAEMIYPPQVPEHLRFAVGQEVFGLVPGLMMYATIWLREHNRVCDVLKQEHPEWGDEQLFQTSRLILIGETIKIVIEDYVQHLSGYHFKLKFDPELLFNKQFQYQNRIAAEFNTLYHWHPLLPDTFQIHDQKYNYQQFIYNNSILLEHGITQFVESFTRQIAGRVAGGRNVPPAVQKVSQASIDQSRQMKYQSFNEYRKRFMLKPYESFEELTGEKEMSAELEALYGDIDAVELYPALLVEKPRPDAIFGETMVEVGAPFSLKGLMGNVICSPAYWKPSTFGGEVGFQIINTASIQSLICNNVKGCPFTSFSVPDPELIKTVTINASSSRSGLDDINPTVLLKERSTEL

[3] = biological target: T2, Prostaglandin G/H synthase 1 (Ovis aries, UniProt P05979)
T2 sequence (P05979 whole entry): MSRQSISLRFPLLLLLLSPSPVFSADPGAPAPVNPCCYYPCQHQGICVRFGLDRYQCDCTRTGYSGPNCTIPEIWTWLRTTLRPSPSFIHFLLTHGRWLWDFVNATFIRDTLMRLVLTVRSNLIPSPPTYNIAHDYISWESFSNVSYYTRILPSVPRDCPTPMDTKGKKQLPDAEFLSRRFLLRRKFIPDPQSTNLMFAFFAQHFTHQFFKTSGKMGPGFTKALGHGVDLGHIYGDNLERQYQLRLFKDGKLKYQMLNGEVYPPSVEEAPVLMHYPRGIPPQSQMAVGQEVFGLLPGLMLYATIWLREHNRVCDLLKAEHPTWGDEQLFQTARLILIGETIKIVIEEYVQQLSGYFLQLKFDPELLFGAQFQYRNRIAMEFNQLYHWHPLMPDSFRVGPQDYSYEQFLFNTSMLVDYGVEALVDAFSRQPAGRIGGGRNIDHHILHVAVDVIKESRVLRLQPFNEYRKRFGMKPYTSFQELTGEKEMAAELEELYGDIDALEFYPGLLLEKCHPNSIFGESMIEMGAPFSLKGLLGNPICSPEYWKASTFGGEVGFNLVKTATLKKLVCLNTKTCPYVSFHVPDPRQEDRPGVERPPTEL
Description: Inhibition of ovine COX1 by enzyme immuno assay

Rattus norvegicus [4] = test: Antiinflammatory activity against carrageenan-induced paw edema in rat at 150 mg/kg, po relative to ibuprofen; assay type: functional
Rattus norvegicus [5] = test: Antiinflammatory activity against carrageenan-induced paw edema in rat at 150 mg/kg, ip; assay type: functional; conditions: route intraperitoneal
Rattus norvegicus [6] = test: Antiinflammatory activity against carrageenan-induced paw edema in rat at 100 mg/kg, po; assay type: functional
Rattus norvegicus [7] = test: Antiinflammatory activity against carrageenan-induced paw edema in rat at 30 mg/kg, po; assay type: functional
Rattus norvegicus [8] = test: Antiinflammatory activity against carrageenan-induced paw edema in po dosed rat; assay type: functional

Row | IC50 [1] | IC50 [2] | IC50 [3] | Compound | other results
1 | 3470 nM | 890 nM | 9.6 µM | O=C(O)Cc1ccc(-c2ccn(C(F)F)c(=O)c2)cc1 | 
2 | 2000 nM | 2600 nM | > 100 µM | CC(C(=O)O)c1ccccc1-c1ccn(C(F)F)c(=O)c1 (configuration not stated) | 
3 | 3000 nM | 2400 nM | 15.3 µM | CC(C(=O)O)c1ccc(-c2ccn(C(F)F)c(=O)c2)cc1 (configuration not stated) | 
4 | 370 nM | 11100 nM | > 100 µM | O=C(O)Cc1cccc(-c2ccn(C(F)F)c(=O)c2)c1 | inhibition in vivo at 100 mg/kg (Rattus norvegicus [6]): 11.2%
5 | 4000 nM |  |  | O=C(O)/C=C/c1ccc(O)c(O)c1 [CAFFEIC ACID] | inhibition in vivo at 30 mg/kg (Rattus norvegicus [7]): 8.2%

The remaining lines, values behind:

Row | Compound | IC50 [1] | IC50 [2] | IC50 [3] | other results
6 | O=C(O)Cc1ccccc1-c1ccn(C(F)F)c(=O)c1 | 200 nM | 860 nM | 5.5 µM | inhibition in vivo at 150 mg/kg (Rattus norvegicus [4]): 19.9%; inhibition in vivo at 150 mg/kg (Rattus norvegicus [5]): 18.5%
7 | CC(C)Cc1ccc(C(C)C(=O)O)cc1 (configuration not stated) [IBUPROFEN] |  |  |  | ED50 (Rattus norvegicus [8]): 67.4 mg/kg
8 | CC(Cc1ccc(O)c(O)c1)C(C)Cc1ccc(O)c(O)c1 (configuration not stated) [NORDIHYDROGUAIARETIC ACID] |  |  |  | inhibition in vivo at 30 mg/kg (Rattus norvegicus [7]): 15.1%
